Experiments:
[1] = Deodorization effect on ammonia odor (dessicator, Kitagawa type gas detector); conditions: 250 mg base agent, 50 mg of 1% ammonia aqueous solution, 2.5 liter dessicator, 20 minutes; relative to blank 1
Description: Into a schale having a diameter of 4 cm was added 250 mg of the deodorant base agents obtained in Reference Examples 1 and 2, and 50 mg of a 1% ammonia aqueous solution was dropped thereon. The above-mentioned schale was allowed to stand still in a 2.5 liter dessicator for 20 minutes, then, the ammonia concentration (S) was measured by a Kitagawa type gas detector. Further, a schale containing no deodorant base agent was used as a blank 1 and a schale containing 250 mg of water added instead of a deodorant base agent was used as a blank 2, and the ammonia concentration was measured likewise. The ammonia concentration of the blank 1 was represented by C, and the deodorization rate was calculated according to the following formula. As Comparative Example 1, the deodorization effect on an ammonia odor was measured likewise in Example 1 using 250 mg of a solution obtained by dissolving 28 g (0.116 mol) of lauryl methacrylate which is a known deodorant base agent in 115 g of diethylene glycol monoethyl ether.
(Measurement Method of Deodorization Ratio)
Deodorization rate (%)=[(C−S)/C]×100
S: ammonia gas concentration after 20 minutes (ppm)
C: ammonia gas concentration of blank 1 (ppm)

[2] = Deodorization effect on mercaptan (sensory evaluation, filter paper in beaker); conditions: 150 mg base agent, 50 mg 0.0002% methylmercaptan in propylene glycol; after 20 minutes; grades 0 to 3 (initial odor = 3), average of three examiners
Description: Filter paper having a length of 7 cm and a width of 0.5 cm was impregnated with 150 mg of a deodorant base agent, subsequently, the same filter paper was impregnated with 50 mg of a 0.0002% solution of methylmercaptan in propylene glycol. The filter paper was placed in erected condition in a 3 liter beaker and wrapping film was covered on it and left for 20 minutes, then, a odor filling the beaker was subjected to sensory evaluation. The strength of the odor of methylmercaptan at the initial was defined as 3, and odors after 20 minutes were evaluated by three examiners based on four grades from 0 to 3, and the average value thereof was calculated and the first decimal was rounded off to give a deodorization effect.

[3] = Deodorization effect on lower fatty acid (sensory evaluation); conditions: 150 mg of 1% aqueous lower fatty acid mixture 20/60/20; after 20 minutes; grades 0 to 3 (initial odor = 3), average of three examiners
[4] = acid dissociation index (pK1, pK2) at 25° C.; assay type: physicochemical; conditions: for first acid dissociation index / second acid dissociation index: for the dibasic acid, source of value not given
Description: The organic dibasic acid used as a deodorant in the present invention is selected from organic dibasic acids and/or salts thereof having a difference between the first acid dissociation index and the second acid dissociation index of 1.7 or more at 25° C. (hereinafter, described as deodorant organic dibasic acid). The acid dissociation index can be measured, for example, by a method (A) described in The Journal of Physical Chemistry vol.
Further, previously obtained data may also be used. […] Further, the organic dibasic acid can be selected based on data bases (D) such as pKa BASE of Compudrug, and the like. The first acid dissociation index and the second acid dissociation index of the organic dibasic acid may be determined by any of the methods (A) to (D).

Row | SMILES | Deodorization rate [1] [%] | Evaluation of odor [2] | Evaluation of odor [3] | first acid dissociation index [4] | second acid dissociation index [4] | difference of acid dissociation index ([4]; given in running text)
1 | C=C(C)C(=O)OCCCCCCCCCCCC [Comparative Example 1, lauryl methacrylate, reference compound] | 10 | 3 | 2 | – | – | –
2 | O=C(O)CCC(=O)O [Comparative Example 2, succinic acid, reference compound] | 33 | 3 | 2 | 4.00 | 5.25 | less than 1.7
3 | O=C(O)[C@H]1CCCC[C@H]1C(=O)O [Deodorant base agent 1, cis-cyclohexane-1,2-dicarboxylic acid] | 79 | 2 | 1 | – | – | –
4 | O=C1OC(=O)C2C3C=CC(C3)C12 (centres unmarked) [Deodorant base agent 2, 5-norbornene-2,3-dicarboxylic acid anhydride] | 88 | 1 | 1 | 4.16 | 6.23 | –
